Measured values taken from patent US6060487A, “Indanol compounds” (Adir et Compagnie, priority 1997, dated 2000).

Experiments:
[1] = Ultrasonic vocalisation test in rats; type: in vivo, Male Wistar rats; conditions: for duration of the ultrasonic vocalisations: mean ± s.e.m.
Excerpt: 3. Ultrasonic Vocalisation Test in Rats
When a rat is placed in an environment previously associated with an unpleasant experience (electric shocks to the paws), its anxiety is shown by the emission of inaudible cries (or ultrasonic vocalisations).
Standard cages (Coulbourn Instruments), placed in sound-absorbing ventilated boxes, are fitted with a floor composed of electrifiable metal bars (shock generator and scrambler Med Associates Inc) and with a microphone located in the centre of the ceiling. The ultrasonic noises are converted into an audible range (bat-detector Buitenbedrijf). The signals modified in that manner are filtered and then processed (RTS software, Engineering Design). The spectrograms obtained are recorded on DAT tapes.
Male Wistar rats weighing 180-200 g on their arrival are placed in cages of four with free access to water and food from five days before the start of the study until the end of the study. The procedure employed is divided into three successive stages separated by 24 hours, called training, selection and test. During the training period, the animals are placed individually into cages where they receive six electric shocks (0.8 mA, 8 s) distributed randomly over a period of seven minutes. Selection comprises placing each animal in a cage for two minutes where it receives a single shock and putting it back in the cage thirty minutes later to record the ultrasonic vocalisations for a period of ten minutes; those animals in which the duration of the vocalisations is less than 90 seconds are excluded from the remainder of the experiment. The test phase proceeds in a similar manner to the selection stage, except that the compounds or the carrier are administered at the end of the two-minute period.

[2] = target: T1, pre-synaptic 5-HT1A receptors (Rattus norvegicus, UniProt P19327); experiment: In vivo recording of unitary extracellular electrical activity in the dorsal nucleus of the raphe in rats
T1 construct: in the Dorsal Nucleus of the Raphe in Rats (pre-synaptic 5-HT1A receptors); from tissue; host or cells: living anaesthetised rat, serotoninergic neurons of the dorsal nucleus of the raphe
T1 sequence (P19327 1-422): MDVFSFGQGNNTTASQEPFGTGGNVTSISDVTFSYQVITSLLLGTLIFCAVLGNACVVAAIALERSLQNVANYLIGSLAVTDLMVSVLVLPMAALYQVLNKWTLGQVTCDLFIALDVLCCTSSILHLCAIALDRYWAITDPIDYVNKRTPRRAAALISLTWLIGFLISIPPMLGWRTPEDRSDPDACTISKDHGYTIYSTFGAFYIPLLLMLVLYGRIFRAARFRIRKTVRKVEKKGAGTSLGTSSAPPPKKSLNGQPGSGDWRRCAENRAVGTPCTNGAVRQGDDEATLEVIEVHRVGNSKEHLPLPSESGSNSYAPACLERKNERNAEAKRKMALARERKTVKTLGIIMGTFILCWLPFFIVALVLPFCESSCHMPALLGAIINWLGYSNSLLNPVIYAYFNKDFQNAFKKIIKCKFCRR
Experimental: 1. "In Vivo" Recording of Unitary Extracellular Electrical Activity in the Dorsal Nucleus of the Raphe in Rats (pre-synaptic 5-HT1A receptors)
The administration of a 5-HT1A serotoninergic agonist decreases the discharge frequency of neurons in a dose-dependant manner. That effect is reversed by the selective 5-HT1A antagonist, WAY 100,635.
The rats are anaesthetised with chloral hydrate (400 mg/kg, i.p.) and placed in a stereotaxis apparatus (Unimecanique, France) after catheterisation of the femoral vein. The level of anaesthesia is maintained by i.p. administration of chloral hydrate every hour; the rectal temperature is maintained at 37±1° C. by means of a thermostatically controlled heated cover. A tungsten microelectrode (10 M.OMEGA., 1 μM) is inserted using an electronic microinsertion device (Unimecanique, France) into the dorsal nucleus of the raphe (AP: -7.8/bregma; L: 0.0; H: 5.0-6.5/dura; Paxinos and Watson Atlas, 1986). The potentials of the serotoninergic cells are characterised by their morphology (positive/negative biphase potentials, of a duration of less than 2.5 msec) and their slow and regular discharge rhythm of from 0.5 to 2.5 Hz. A single cell per animal is recorded.
After a period of ≥5 min (basal activity) and a first injection of carrier (distilled water to which a few drops of dilute lactic acid have been added, pH adjusted to 5 with 1N NaOH), the compound of the invention is administered intravenously in cumulatively increasing doses at intervals of 5 minutes.
Acquisition of the data is effected by the software Spike2 (Cambridge Electronic Design, England). The discharge frequency is measured over one minute at the maximum variation between each injection and is expressed as a percentage variation in relation to the basal activity (average of the 5 minutes preceding the first treatment) defined as 100%. The ID50 is calculated using a simple linear regression method with repeated measurements.

human 5-HT1A receptor = target: T2, human 5-HT1A receptor (Homo sapiens, UniProt P08908); experiment: Affinity for human h5-HT1A receptors, competition with [^3 H]-8-OH-DPAT; type: binding
T2 construct: expressed in transfected cells; host or cells: CHO cells (membranes)
T2 sequence (P08908 1-422): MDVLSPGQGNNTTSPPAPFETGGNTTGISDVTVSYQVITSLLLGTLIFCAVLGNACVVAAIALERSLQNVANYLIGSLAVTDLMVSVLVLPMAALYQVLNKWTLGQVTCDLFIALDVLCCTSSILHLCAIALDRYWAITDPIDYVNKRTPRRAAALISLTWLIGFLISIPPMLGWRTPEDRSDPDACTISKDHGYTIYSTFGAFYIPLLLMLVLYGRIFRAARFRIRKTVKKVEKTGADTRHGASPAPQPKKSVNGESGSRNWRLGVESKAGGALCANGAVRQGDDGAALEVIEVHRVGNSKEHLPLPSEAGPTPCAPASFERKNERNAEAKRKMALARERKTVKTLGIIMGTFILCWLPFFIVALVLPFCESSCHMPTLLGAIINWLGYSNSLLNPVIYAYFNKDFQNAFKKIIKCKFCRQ
Experimental: The radioactivity retained on the filters is determined by liquid scintillation counting.

α1 receptors = experiment: Affinity for α1 receptors of rats, competition with [^3 H]-prazosin; type: binding; conditions: frontal cortex of rat, 25° C.
Experimental: The radioactivity retained on the filters is determined by liquid scintillation counting. The binding isotherms are analysed by non-linear regression using `PRISM` software (GraphPad Software Inc., S. Diego, USA) to determine IC50 values.

[3] = target: T3, post-synaptic 5-HT1A receptors (Rattus norvegicus, UniProt P19327); experiment: Body temperature test in rats; type: in vivo
T3 construct: Body Temperature Test in Rats (post-synaptic 5-HT1A receptors); from tissue; host or cells: living rat (whole animal)
T3 sequence (P19327 1-422): T1 sequence (P19327 1-422)
Excerpt: 2. Body Temperature Test in Rats (post-synaptic 5-HT1A receptors)
That effect is reversed by 5-HT1A antagonists,as has been shown by M. J. Millan (J. Pharmacol. Exp. Ther., 1993, 264, 1346-1376). According to the protocol described by that author, compounds of the invention which when administered on their own bring about a decrease in body temperature will be identified as post-synaptic 5-HT1A serotoninergic agonists. On the other hand, compounds of the invention that reverse the hypothermia induced by the prototypical 5-HT1A agonist 8-OH-DPAT will be identified as post-synaptic 5-HT1A antagonists.

[4] = target: T3, post-synaptic 5-HT1A receptors; conditions: M. J. Millan, 1993; cited from earlier work

Row | discharge frequency, percentage in relation to the basal activity (100%) ([2]; 0.25 μg/kg i.v., n = 3, mean ± standard error of the mean) | discharge frequency, percentage in relation to the basal activity (100%) ([2]; 0.5 μg/kg i.v., n = 3, mean ± standard error of the mean) | discharge frequency, percentage in relation to the basal activity (100%) ([2]; 1 μg/kg i.v., n = 3, mean ± standard error of the mean) | ED50 ([2]; intravenous, rat dorsal raphe, read-out: ID50 (decrease of discharge frequency)) | discharge frequency, percentage in relation to the basal activity (100%), after WAY 100,635 ([2]; reversal by WAY 100,635 31 μg/kg after cumulative Example 6 doses, n = 3, mean ± standard error of the mean) | Ki (human 5-HT1A receptor) | Ki (α1 receptors) | ED50 ([3]; sc, read-out: ID50 (reversal of the effects of 8-OH-DPAT, hypothermia)) | Compound | duration of the ultrasonic vocalisations ([1]; 0.04 mg/kg s.c., n = 6) | duration of the ultrasonic vocalisations ([1]; 0.16 mg/kg s.c., n = 3, ** p < 0.01 vs carrier (Dunnett test)) | duration of the ultrasonic vocalisations ([1]; 2.5 mg/kg s.c., n = 5, ** p < 0.01 vs carrier (Dunnett test)) | effect on duration of the vocalisations (anxiolytic activity) ([1]; 0.16 and 2.5 mg/kg s.c.) | character at pre-synaptic 5-HT1A receptors ([2]; pre-synaptic, rat, i.v.) | character at post-synaptic 5-HT1A receptors ([3]; post-synaptic, s.c.) | effect on body temperature [4]
1 | 73.84% | 52.23% | 36.16% | 0.00059 mg/kg | 140.48% | 0.00173 µM | 0.932 µM | 1.3 mg/kg | O[C@@H]1c2ccccc2C[C@H]1N1CCN(c2cccc3c2OCCO3)CC1 (relative stereo) [Example 6, Trans-2-[4-(2,3-dihydro[1,4]benzodioxin-5-yl)piperazin-1-yl]indan-1-ol] | 170 ± 62 s | 28 ± 14 s | 8 ± 8 s | brings about a reduction in the duration of the vocalisations, indicating its anxiolytic activity | behaves like a 5-HT1A serotoninergic agonist at the pre-synaptic level | behaves like a post-synaptic 5-HT1A serotoninergic antagonist | 
2 |  |  |  |  |  |  |  |  | CCCN(CCC)C1CCc2cccc(O)c2C1 (stereo not drawn) [Example 8-OH-DPAT] |  |  |  |  |  |  | brings about a decrease in body temperature in a dose-dependent manner
